Measurements taken from patent US6107068A, “Coenzyme A disulfide reductase, and inhibitors thereof useful as antimicrobial agents” (The University of British Columbia, priority 1997, dated 2000).

How the values were obtained:
[1] = target: S. aureus coenzyme A disulfide reductase (Staphylococcus aureus, UniProt O52582); experiment: Steady state kinetic analysis of NADPH oxidation by disulfide substrates catalyzed by purified CoADR (340 nm)
Method: (§1) DTNB assays were performed in Tris-HCl (20 mM), pH 8.0, containing EDTA (1 mM) (TE buffer), and were monitored at 412 nm for the nitrobenzothiolate anion (e^412 =15,600 M^-1 cm^-1 (Ellman (1959) Arch. Biochem. Biophys. 82:70-77)). […] For kinetic analysis of purified CoADR activity, the oxidation of NADPH was measured as the decrease in absorbance at 340 nm (De^340 =6,220 M^-1 cm^-1), and was carried out in Tris-HCl (50 mM), pH 7.8, containing NaCl (50 mM).
(§2) The specificity of CoADR for these substrates and various other biological disulfides were quantitated kinetically. Kinetic measurements were performed in a 1 cm path-length quartz cuvette maintained at 37° C. […] Enzyme and NADPH were combined in buffer and equilibrated to 37° C., and the reaction was initialized by the addition of the disulfide substrate. The activity of CoADR was monitored at 340 nm as the decrease in absorbance resulting from the oxidation of NADPH. All kinetic measurements were recorded in the linear range, and at least seven substrate concentrations were used for each analysis. Kinetic constants were calculated from a linear least squares fit of the initial velocity data to the Michaelis-Menton equation using the program HyperO.

[2] = background statement, Newton et al. (1996); cited from earlier work
[3] = Cu2+ catalyzed oxidation of thiols (remaining thiol by DTNB); format: physicochemical; conditions: thiol 1 mM, CuCl2 1 mM, Tris-HCl pH 7.5, ambient temperature
Method: To determine the relative stability of CoA to heavy metal-catalyzed oxidation, the rate of Cu^2+ catalyzed oxidation of cysteine, GSH, and CoA were compared. Each sample (2 ml) of thiol (1 mM) in Tris-HCl buffer (20 mM), pH 7.5, containing CuCl2 (1 mM) was incubated at ambient temperature. Thiol determination was then carried out at various times by adding aliquots ([…]) from each sample to a solution ([…]) of DTNB (1 mM) in Tris-HCl buffer (20 mM), pH 8.0, containing EDTA (1 mM). The absorbance of these samples at 412 nm was measured and the concentration of remaining thiol determined.

[4] = target: Coenzyme A disulfide reductase (CoADR) in extracts of Staphylococcus aureus (Staphylococcus aureus, UniProt O52582); experiment: Pyridine nucleotide and disulfide dependent reduction of DTNB by dialyzed S. aureus extracts; format: biochemical
Coenzyme A disulfide reductase (CoADR) in extracts of Staphylococcus aureus, sequence (O52582 2-438): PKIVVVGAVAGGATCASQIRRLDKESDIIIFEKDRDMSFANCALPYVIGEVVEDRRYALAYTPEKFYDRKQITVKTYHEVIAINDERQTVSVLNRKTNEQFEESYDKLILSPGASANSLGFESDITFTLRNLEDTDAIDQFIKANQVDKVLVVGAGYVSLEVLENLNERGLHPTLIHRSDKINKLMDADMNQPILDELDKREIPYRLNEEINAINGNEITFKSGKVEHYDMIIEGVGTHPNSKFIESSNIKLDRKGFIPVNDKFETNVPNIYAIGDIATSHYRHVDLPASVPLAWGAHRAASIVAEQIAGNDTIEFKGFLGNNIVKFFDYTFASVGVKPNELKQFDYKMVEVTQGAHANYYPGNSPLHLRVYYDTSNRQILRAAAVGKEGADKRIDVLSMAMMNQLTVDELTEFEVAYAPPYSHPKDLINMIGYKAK
Method: Concentrations of […] (and dephosphoCoA disulfide) were measured spectrophotometrically at 340 nm (e^340 =6220 M^-1 cm^-1), 260 nm (e^260 =33,600 M^-1 cm^-1), and 450 nm (e^450 =11,000 M^-1 cm^-1), respectively. DTNB assays were performed in Tris-HCl (20 mM), pH 8.0, containing EDTA (1 mM) (TE buffer), and were monitored at 412 nm for the nitrobenzothiolate anion (e^412 =15,600 M^-1 cm^-1 (Ellman (1959) Arch. Biochem. Biophys. 82:70-77)). Protein concentrations were determined by reaction with bicinchoninic acid and copper sulfate (Deutscher (1990) in Meth. Enzymol., vol. 182. San Diego: Academic Press, Inc.). During purification, CoADR activity in crude extracts was monitored by the NADPH and CoA disulfide dependent reduction of DTNB. DTNB and all substrates were added at 0.1 mM. For kinetic analysis of purified CoADR activity, the oxidation of NADPH was measured as the decrease in absorbance at 340 nm (De^340 =6,220 M^-1 cm^-1), and was carried out in Tris-HCl (50 mM), pH 7.8, containing NaCl (50 mM).
In order to identify the enzyme responsible for maintaining CoA in its reduced form, S. aureus extracts were analyzed for a disulfide reductase specific for CoA disulfide. An overnight culture (10 ml) of R8325-4 was centrifuged (5,000×g, 10 min), resuspended in 3 ml of TE buffer containing lysostaphin (5 mg/ml), and incubated at 37° C. for 30 min until the suspension became viscous. Glass beads (1 g) and PMSF (to 1 mM) were added, the mixture was vortexed for two minutes and then centrifuged (14,000×g, 10 min) to remove the insoluble cellular debris. The resulting viscous lysate was dialyzed exhaustively (3,600 Mr cutoff) against TE buffer. The dialysate was then assayed for the pyridine nucleotide (1 mM) and CoA disulfide (1 mM) dependent reduction of DTNB (1 mM).

[5] = system: NC(=O)C1=CN([C@@H]2O[C@H](COP(=O)(O)OP(=O)(O)OC[C@H]3O[C@@H](n4cnc5c(N)ncnc54)[C@H](OP(=O)(O)O)[C@@H]3O)[C@@H](O)[C@H]2O)C=CC1; experiment: purified protein, by the assay type
Method: as §1, §2

[6] = system: CC(C)(COP(=O)(O)O)[C@@H](O)C(=O)NCCC(=O)NCCSSCCNC(=O)CCNC(=O)[C@H](O)C(C)(C)COP(=O)(O)O; experiment: purified protein, by the assay type; conditions: other: disulfide substrate varied, NADPH maintained at 200 mM, 37° C., nd = no activity detected
Method: as §1, §2

[7] = system: CC(C)(COP(=O)(O)OP(=O)(O)OC[C@H]1O[C@@H](n2cnc3c(N)ncnc32)[C@H](O)[C@@H]1OP(=O)(O)O)[C@@H](O)C(=O)NCCC(=O)NCCSSC[C@H](NC(=O)CC[C@H](N)C(=O)O)C(=O)NCC(=O)O; experiment: purified protein, by the assay type; conditions: other: disulfide substrate varied, NADPH maintained at 200 mM, 37° C., nd = no activity detected
Method: as §1, §2

[8] = system: CC(C)(COP(=O)(O)OP(=O)(O)OC[C@H]1O[C@@H](n2cnc3c(N)ncnc32)[C@H](O)[C@@H]1OP(=O)(O)O)[C@@H](O)C(=O)NCCC(=O)NCCSSCCNC(=O)CCNC(=O)[C@H](O)C(C)(C)COP(=O)(O)OP(=O)(O)OC[C@H]1O[C@@H](n2cnc3c(N)ncnc32)[C@H](O)[C@@H]1OP(=O)(O)O; experiment: purified protein, by the assay type; conditions: other: disulfide substrate varied, NADPH maintained at 200 mM, 37° C., nd = no activity detected
Method: as §1, §2

[9] = system: CC(C)(COP(=O)(O)OP(=O)(O)OC[C@H]1O[C@@H](n2cnc3c(N)ncnc32)[C@H](O)[C@@H]1O)[C@@H](O)C(=O)NCCC(=O)NCCSSCCNC(=O)CCNC(=O)[C@H](O)C(C)(C)COP(=O)(O)OP(=O)(O)OC[C@H]1O[C@@H](n2cnc3c(N)ncnc32)[C@H](O)[C@@H]1O; experiment: purified protein, by the assay type; conditions: other: disulfide substrate varied, NADPH maintained at 200 mM, 37° C., nd = no activity detected
Method: as §1, §2

[10] = target: the molecule itself; experiment: gel exclusion chromatography of the native enzyme (approximately 85 kD) compared with SDS-PAGE of the subunit (~50 kD)
[11] = other: NADPH varied, CoA disulfide maintained at 120 mM, 37° C.

S. aureus coenzyme A disulfide reductase, sequence (O52582 2-438): as above

CC(C)(COP(=O)(O)OP(=O)(O)OC[C@H]1O[C@@H](n2cnc3c(N)ncnc32)[C@H](O)[C@@H]1O)[C@@H](O)C(=O)NCCC(=O)NCCSSCCNC(=O)CCNC(=O)[C@H](O)C(C)(C)COP(=O)(O)OP(=O)(O)OC[C@H]1O[C@@H](n2cnc3c(N)ncnc32)[C@H](O)[C@@H]1O [3'-dephospho-CoA disulfide]
change in kcat as compared to CoA disulfide [1]: no detectable change | increase in Km as compared to CoA disulfide [1]: 10 fold

CC(C)(COP(=O)(O)O)[C@@H](O)C(=O)NCCC(=O)NCCSSCCNC(=O)CCNC(=O)[C@H](O)C(C)(C)COP(=O)(O)O [4,4'-diphospho-pantethine]
kcat lower than for 3'-dephospho-CoA disulfide [1]: 2-3 fold

CC(C)(COP(=O)(O)OP(=O)(O)OC[C@H]1O[C@@H](n2cnc3c(N)ncnc32)[C@H](O)[C@@H]1OP(=O)(O)O)[C@@H](O)C(=O)NCCC(=O)NCCS [CoA, Coenzyme A]
stability to heavy metal-catalyzed auto-oxidation [2]: slightly more stable than glutathione

N[C@@H](CCC(=O)N[C@@H](CS)C(=O)NCC(=O)O)C(=O)O [GSH, g-glutamyl-cysteinyl-glycine]
stability to copper-catalyzed autooxidation [3]: much more stable than cysteine

NC(=O)C1=CN([C@@H]2O[C@H](COP(=O)(O)OP(=O)(O)OC[C@H]3O[C@@H](n4cnc5c(N)ncnc54)[C@H](O)[C@@H]3O)[C@@H](O)[C@H]2O)C=CC1 [NADH]
use in the CoA disulfide dependent reduction of DTNB [4]: cannot be used

N[C@@H](CSSC[C@H](N)C(=O)O)C(=O)O [cystine]
turnover / activity with CoADR [1]: No activity could be detected | function in the NADPH-dependent reduction of DTNB [4]: did not function

CC(C)(CO)[C@@H](O)C(=O)NCCC(=O)NCCSSCCNC(=O)CCNC(=O)[C@H](O)C(C)(C)CO [pantethine]
turnover / activity with CoADR [1]: not turned over | function in the NADPH-dependent reduction of DTNB [4]: did not function

S. aureus coenzyme A disulfide reductase (Staphylococcus aureus subsp. aureus NCTC 8325)
Km [5, 11]: 1.6 µM | kcat [5, 11]: 1020 ± 60 min⁻¹ | Km ([5]; other: at saturating CoA disulfide, 37.0 °C): 2 µM | Km [6]: 80 µM | Km [7]: 1100 µM | Km [8]: 11 µM | Km [9]: 140 µM

B1: Coenzyme A disulfide reductase (CoADR) from Staphylococcus aureus (enzyme)
chain: PKIVVVGAVAGGATCASQIRRLDKESDIIIFEKDRDMSFANCALPYVIGEVVEDRRYALAYTPEKFYDRKQITVKTYHEVIAINDERQTVSVLNRKTNEQFEESYDKLILSPGASANSLGFESDITFTLRNLEDTDAIDQFIKANQVDKVLVVGAGYVSLEVLENLNERGLHPTLINRSDKINKLMDADMNQPILDELDKREIPYRLNEEINAINGNEITFKSGKVEHYDMIIEGVGTHPNSKFIESSNIKLDRKGFIPVNDKFETNVPNIYAIGDIATSHYRHVDLPASVPLAWGAHRAASIVAEQIAGNDTIEFKGFLGNNIVKFFDYTFASVGVKPNELKQFDYKMVEVTQGAHANYYPGNSPLHLRVYYDTSNRQILRAAAVGKEGADKRIDVLSMAMMNQLTVDELTEFEVAYAPPYSHPKDLINMIGYKAK
binding result [10]: binds
